We go through seven molecules from publication PMC8242095, “Crystal structure of an archaeal CorB magnesium transporter” (Nature Communications, 2021).

The target in one series is T1, MtCorBCBS (Methanoculleus thermophilus, UniProt A0A1G8XA46).
T1 construct: gene corB; CBS-pair domain, residues 199-322, GST-tag cut leaving N-terminal GPLGS, E. coli BL21(DE3); crystal 7MSU came from in situ cleavage of MtCorBΔC
Nature of the series: isothermal titration calorimetry; also crystal structure […] Å. It is filed as binding.

A further series concerns the target T2, MtCorBΔC (Methanoculleus thermophilus, UniProt A0A1G8XA46).
T2 construct: gene corB; residues 1-322 (TMD, AHB, CBS-pair; CorC domain deleted), C-terminal His6-tag, E. coli C41(DE3), detergent-solubilized
The experiment in a line: isothermal titration calorimetry. It is filed as binding. The text has this:
isothermal titration calorimetry on MtCorBΔC | MtCorBΔC has the highest affinity for ATP, followed by ADP and AMP
(ITC needs no label: the signal is the heat of the interaction.)

Series [1] deals with the molecule itself. The experiment in a line: crystal structure; MtCorBΔC_(Δloop) in 0.05% UDM with 5 mM ATP and 20 mM MgCl2; hanging drop, 0.1 M sodium citrate pH 5.5, 0.1 M Li2SO4, 0.1 M NaCl, 34% PEG400, 22 °C; 3.25 Å.
Series [2] deals with the molecule itself. The experiment in a line: crystal structure; MtCorBΔC R235L in 0.05% UDM, no ATP; hanging drop, 0.1 M sodium citrate pH 5.5, 50 mM Li2SO4, 11% PEG4000, 10 mM MgSO4, 22 °C; 3.8 Å.
Series [3] deals with the molecule itself. The experiment in a line: HDX-MS; MtCorB or MtCorBΔC in MSP1D1 nanodiscs, with and without Mg2+-ATP; exchange for 3, 30, 300 or 3000 s at 20 °C, 100 mM NaCl, 20 mM HEPES pH 7.5.

As to `Nc1ncnc2c1ncn2[C@@H]1O[C@H](COP(=O)(O)OP(=O)(O)OP(=O)(O)O)[C@@H](O)[C@H]1O` [ATP], the Kd (as a rule, the constant that tells how readily two partners part at equilibrium) on MtCorBCBS came out at 530 ± 50 nM; at MtCorBΔC, 0.59 ± 0.06 µM.
`Nc1ncnc2c1ncn2[C@@H]1O[C@H](COP(=O)(O)OP(=O)(O)O)[C@@H](O)[C@H]1O` [ADP] yielded a Kd at MtCorBΔC of 10.3 ± 1 µM.
On the same count and under the same terms, in the case of `Nc1ncnc2c1ncn2[C@@H]1O[C@H](COP(=O)(O)O)[C@@H](O)[C@H]1O` [AMP] it was 83 ± 17 µM.

B1: MtCorBΔC_(Δloop) (Methanoculleus thermophilus CorB residues 1–322 Δ259–262) (domain or fragment, UniProt A0A1G8XA46 1-322, looked up)
chain: MVVIDLLIVEVVLFIAALLFSGFFSSSEVALISITRAKVHALQSQGRKGAKALDTLKRSTDAIQITTLIGSTIANVAVASLATAIGITLYGNLGIAVGLVVAAVLVLVFGEIGPKMYASRYTEELALRVSRPILFFSKLLYPVLWVTDRIEQQFAFRPGVTEPVVTEEEIKEWIDVGEEEGTIEEEERDMLYSVLRFGDTTAREVMTPRVDVVMIEDTATLESALAIFNETGFSRIPVYHERIDNIVGLLNVKDVFSAQTSATIRDLMYEPYFIPESKKIDELLKELQVKKQHMAVVLDEYGSFAGIVTVEDMLEELV
notes: CorB, Methanoculleus thermophilus, UniProt A0A1G8XA46, residues 1-322 (TMD, AHB and CBS-pair domain; CorC domain deleted) with the internal loop 259-262 deleted; Modelled: chain A residues 5-322, chain B residues 4-154 and 160-322; also called MtCorBΔC with an internal loop deletion; source: E. coli C41 (DE3), purified (Ni-NTA, SEC) in UDM
Regarding B1, the binding result in series [1] is recorded as “binds”.

B2: MtCorBΔC R235L (domain or fragment, Methanoculleus thermophilus, UniProt A0A1G8XA46 1-322, looked up)
chain: MVVIDLLIVEVVLFIAALLFSGFFSSSEVALISITRAKVHALQSQGRKGAKALDTLKRSTDAIQITTLIGSTIANVAVASLATAIGITLYGNLGIAVGLVVAAVLVLVFGEIGPKMYASRYTEELALRVSRPILFFSKLLYPVLWVTDRIEQQFAFRPGVTEPVVTEEEIKEWIDVGEEEGTIEEEERDMLYSVLRFGDTTAREVMTPRVDVVMIEDTATLESALAIFNETGFSLIPVYHERIDNIVGLLNVKDVFSAVFRQQTSATIRDLMYEPYFIPESKKIDELLKELQVKKQHMAVVLDEYGSFAGIVTVEDMLEELV
notes: CorB, Methanoculleus thermophilus, UniProt A0A1G8XA46, residues 1-322 (MtCorBΔC) with R235L; also called MtCorBΔC R235L mutant; apo conformation of MtCorBΔC; source: E. coli C41 (DE3), purified (Ni-NTA, SEC) in UDM
B2: in series [2], the binding result is given as “binds”.

B3: MtCorBΔC (residues 1–322) (domain or fragment, Methanoculleus thermophilus, UniProt A0A1G8XA46 1-322, looked up)
chain: MVVIDLLIVEVVLFIAALLFSGFFSSSEVALISITRAKVHALQSQGRKGAKALDTLKRSTDAIQITTLIGSTIANVAVASLATAIGITLYGNLGIAVGLVVAAVLVLVFGEIGPKMYASRYTEELALRVSRPILFFSKLLYPVLWVTDRIEQQFAFRPGVTEPVVTEEEIKEWIDVGEEEGTIEEEERDMLYSVLRFGDTTAREVMTPRVDVVMIEDTATLESALAIFNETGFSRIPVYHERIDNIVGLLNVKDVFSAVFRQQTSATIRDLMYEPYFIPESKKIDELLKELQVKKQHMAVVLDEYGSFAGIVTVEDMLEELV
notes: CorB, Methanoculleus thermophilus, UniProt A0A1G8XA46, residues 1-322 (CorC domain deleted); In nanodiscs of soybean polar extract and MSP1D1 (MtCorB:MSP1D1:lipid 2:10:550); filled nanodiscs were recovered on Ni-NTA; also called truncated MtCorB; MtCorB with a C-terminal CorC domain deletion; source: E. coli C41 (DE3), purified (Ni-NTA, SEC), reconstituted into MSP1D1 nanodiscs; not shown: His6, …
Take B3: in series [3], the binding result was “binds”.

B4: MtCorB (residues 1–426), Methanoculleus thermophilus CorB (natural protein, UniProt A0A1G8XA46 1-426, looked up)
chain: MVVIDLLIVEVVLFIAALLFSGFFSSSEVALISITRAKVHALQSQGRKGAKALDTLKRSTDAIQITTLIGSTIANVAVASLATAIGITLYGNLGIAVGLVVAAVLVLVFGEIGPKMYASRYTEELALRVSRPILFFSKLLYPVLWVTDRIEQQFAFRPGVTEPVVTEEEIKEWIDVGEEEGTIEEEERDMLYSVLRFGDTTAREVMTPRVDVVMIEDTATLESALAIFNETGFSRIPVYHERIDNIVGLLNVKDVFSAVFRQQTSATIRDLMYEPYFIPESKKIDELLKELQVKKQHMAVVLDEYGSFAGIVTVEDMLEELVGEILDEFDEEEPEVQQLEEGIYLVDARTWVEHLNEDLDLNLPLMDTYESIGGLVIERLGHIPRRGEVVKIEESNVTLVVMQMRGRRIVKVKLIIGPPVPPTESR
notes: CorB, Methanoculleus thermophilus, UniProt A0A1G8XA46, residues 1-426; In nanodiscs of soybean polar extract and MSP1D1; filled nanodiscs were recovered on Ni-NTA; also called full-length MtCorB; source: E. coli C41 (DE3), purified (Ni-NTA, SEC), reconstituted into MSP1D1 nanodiscs; not shown: His6, C-terminal, kept
With B4, the binding result in series [3] is reported as “binds”.
